Assay results: patent US6699686B1, “Modified nuclear glucocorticoid receptor, fusion protein, and DNA fragments coding for said receptor and said fusion protein” (Association pour le Development de la Recherche en …, priority 1996, dated 2004)

How the values were obtained:
wild-type hGR = target: T1, wild-type hGR (Homo sapiens, UniProt P04150); assay: Transcriptional activation of pTAT-tk-Luc luciferase reporter in transiently transfected CV-1 cells; format: cell-based; parameters: Luciferase activity % Wild type: concentration or dose not given beside the values; conditions: for Luciferase activity % Wild type: 24 h ligand, mean of three independent assays; for EC50: ligand concentration giving 50% of maximum transcriptional response
T1 construct: expressed in transfected cells
T1 sequence (P04150 1-777): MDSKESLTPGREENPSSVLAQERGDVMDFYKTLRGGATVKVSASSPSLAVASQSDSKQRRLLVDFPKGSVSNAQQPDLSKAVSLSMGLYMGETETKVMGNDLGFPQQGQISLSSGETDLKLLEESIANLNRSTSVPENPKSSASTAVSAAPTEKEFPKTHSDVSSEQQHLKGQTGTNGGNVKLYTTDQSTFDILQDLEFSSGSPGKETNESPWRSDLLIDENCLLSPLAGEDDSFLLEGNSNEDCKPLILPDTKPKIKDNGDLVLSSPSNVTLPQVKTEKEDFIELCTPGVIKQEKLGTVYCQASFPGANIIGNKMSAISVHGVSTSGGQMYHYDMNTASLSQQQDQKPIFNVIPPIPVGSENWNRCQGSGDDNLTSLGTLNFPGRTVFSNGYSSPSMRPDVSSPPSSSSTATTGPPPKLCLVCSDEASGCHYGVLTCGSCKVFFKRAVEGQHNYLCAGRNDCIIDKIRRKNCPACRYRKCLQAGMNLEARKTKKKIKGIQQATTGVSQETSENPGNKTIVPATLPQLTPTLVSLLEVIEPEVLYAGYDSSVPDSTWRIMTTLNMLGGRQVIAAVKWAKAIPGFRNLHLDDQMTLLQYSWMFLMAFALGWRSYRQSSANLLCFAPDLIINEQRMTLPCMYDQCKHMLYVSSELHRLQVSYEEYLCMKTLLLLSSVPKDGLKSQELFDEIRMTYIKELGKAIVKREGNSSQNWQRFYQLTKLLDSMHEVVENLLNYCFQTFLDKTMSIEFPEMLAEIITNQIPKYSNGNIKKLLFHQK
Description: (§1) The receptors were transiently expressed in GR-free CV-1 cells, conjointly with a luciferase reporter gene under the control of the tyrosine aminotransferase promoter (pTAT-tk-Luc).
(§2) After transfection, the cells were incubated for 24 hours with increasing concentrations of Dex, and they were then subjected to an assay of the β-galactosidase and luciferase activities, as described in “Materials and Methods”. The luciferase activity was normalized with the β-galactosidase activity, and the value obtained in the absence of ligand was subtracted for each point. The results were expressed as a percentage of the maximum luciferase activity obtained for each receptor. Each point is the mean±standard deviation of the mean of four separate determinations carried out in duplicate. […] The [^3H] steroid attached was measured after treatment with dextran-coated charcoal. The results presented are those for a single assay carried out in duplicate and representative of three separate assays.
(§3) Co-transfections were carried out and dose-response curves were constructed as described in FIG. 2. […] The assays of luciferase and β-galactosidase activity were carried out as described in “Materials and Methods”. The mean values of three independent assays are given in this table. nm=not measurable.
(§4) The CV-1 and Cos-7 cells were cultured in Dulbeco's modified Eagle's medium (DMEM) containing 10% (v/v) of fetal calf serum (FCS) (Gibco, Grand Island, N.Y.), in a humidified atmosphere containing 5% CO2. The HeLa cells were cultured under the same conditions. Transient transfections were carried out in 6-well multiplates according to the calcium phosphate procedure already described (42). A reference recombinant plasmid, pCMV-βgal, expressing bacterial β-galactosidase, was transfected conjointly with the receptor expression vector and the corresponding reporter gene so as to correct possible variations in he transfection efficiency. The precipitate was removed by washing after 24 hours, and the cells were kept in DMEX without FCS but containing hormone. After another 24 hours, the cells were rinsed and lysed for 15 minutes with 0.3 ml of lysis buffer [25 mM Tris.phosphate, pH 7.8, 8 mM […], 1% Triton X100, 10% glycerol (48)]. The corresponding luciferase activity as determined on an aliquot fraction (0.1 ml), by evaluation of the luminescence peak (for an integration time of 15 seconds), after injection of 0.1 ml of 1 mM luciferin in an LKB luminometer. The β-galactosidase was determined by the method modified by Bocquel et al. (49), for controlling the efficiency of each transfection.
(§5) The reporter gene pTAT-tk-Luc was provided by D. Gagne and was constructed as follows: an intermediate plasmid pTAT was first generated by insertion of the 966 bp EcoRI-BamHI segment obtained from pKT531 [offered freely by T. Grande (50)] into the corresponding sites of the vector pUC19 (Pharmacia). The fragment containing the sequence coding for the firefly luciferase and the thymidine kinase (tk) minimal promoter obtained from the Herpes simplex virus was isolated in the form of a BamHI fragment from pvit-tk-Luc (51) and inserted, downstream of the TAT promoter, into the corresponding site of pTAT. The reporter plasmid pGRE-tk-Luc was constructed by ligation of the fragment of HindIII-BglII digestion of pGRE-tk-CAT (52), which contains a synthetic GRE (AGAACAcagTGTTCT) upstream of the tk minimal promoter, into the HindIII-BglII sites of pLuc (53). The reporter gene p(17M)5-βGlob-Luc has been previously described (54). The reporter plasmid p(17M)5-tata-Luc was constructed from the plasmid p(17M)5-tata-CAT (55) by digestion with XhoI-BamHI and isolation of the fragment containing (17M5)-tata. This fragment was then inserted into the vector pGL2 (Promega) digested with the same restriction enzymes.

hGR(I747/T) = target: T2, hGR(I747/T) (Homo sapiens, UniProt P04150, I747T); assay: as above; format: cell-based; conditions: for transactivation by the I747/T mutant receptor compared with wild-type receptor / Luciferase activity % hGR (I747/T) / EC50: CV-1 cells, pTAT-tk-Luc; for Luciferase activity % hGR (I747/T): 24 h ligand, mean of three independent assays; for EC50: ligand concentration giving 50% of maximum transcriptional response; for % EC50: EC50 hGR(I747/T) relative to EC50 wild type
T2 construct: The same shift was observed as with the complete GR (I747/T) mutant; expressed in transfected cells
T2 sequence (P04150 1-777 I747T): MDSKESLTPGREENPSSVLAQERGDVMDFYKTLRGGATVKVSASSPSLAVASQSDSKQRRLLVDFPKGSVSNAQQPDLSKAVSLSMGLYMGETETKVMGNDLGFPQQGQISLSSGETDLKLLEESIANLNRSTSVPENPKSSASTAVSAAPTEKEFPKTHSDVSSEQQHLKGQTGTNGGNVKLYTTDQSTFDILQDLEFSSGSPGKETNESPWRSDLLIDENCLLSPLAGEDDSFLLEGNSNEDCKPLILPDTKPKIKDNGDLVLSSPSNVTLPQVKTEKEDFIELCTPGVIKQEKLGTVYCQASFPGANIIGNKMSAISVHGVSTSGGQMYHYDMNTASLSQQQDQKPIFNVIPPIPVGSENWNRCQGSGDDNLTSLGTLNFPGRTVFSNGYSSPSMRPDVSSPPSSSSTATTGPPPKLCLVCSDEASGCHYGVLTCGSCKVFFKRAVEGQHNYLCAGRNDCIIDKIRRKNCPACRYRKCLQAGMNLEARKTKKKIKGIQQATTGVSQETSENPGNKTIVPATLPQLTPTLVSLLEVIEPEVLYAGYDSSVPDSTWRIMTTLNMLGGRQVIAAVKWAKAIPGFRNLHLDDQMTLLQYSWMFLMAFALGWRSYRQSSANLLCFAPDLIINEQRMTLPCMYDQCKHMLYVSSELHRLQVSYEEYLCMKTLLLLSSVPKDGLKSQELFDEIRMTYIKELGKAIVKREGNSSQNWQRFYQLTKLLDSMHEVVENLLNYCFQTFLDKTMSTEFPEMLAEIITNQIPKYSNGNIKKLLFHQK
Description: as §1, §2, §3, §4, §5

[1] = target: wild-type glucocorticoid receptor (hGR) T747I (reversion to wild type) (Homo sapiens) (UniProt P04150); assay: cell_activity; conditions: EC50 is for dexamethasone; luciferase reporter in CV-1 cells
[2] = target: GR(I747/T) glucocorticoid receptor mutant (Homo sapiens) (UniProt P04150); assay: cell_activity; conditions: EC50 is for dexamethasone; luciferase reporter in CV-1 cells; cortisol 15% and corticosterone/aldosterone 0% activity
[3] = system: Gal4(1-147)-GR(500-777) (Saccharomyces cerevisiae / Homo sapiens); assay: cell_activity; conditions: EC50 is for dexamethasone; p(17M)5-βGlob-Luc in HeLa cells; 2e-9 M with tata-Luc
[4] = system: Gal4(1-147)-GR(I747/T)(500-777) I747T (Saccharomyces cerevisiae / Homo sapiens); assay: cell_activity; conditions: EC50 is for dexamethasone; p(17M)5-βGlob-Luc in HeLa cells; 2e-7 M with tata-Luc
[5] = target: T3, GR(I747/T) glucocorticoid receptor mutant (Homo sapiens, UniProt P04150 SEQ:1-777); assay: cell_activity; EC50 is for dexamethasone; luciferase reporter in CV-1 cells
T3 chain: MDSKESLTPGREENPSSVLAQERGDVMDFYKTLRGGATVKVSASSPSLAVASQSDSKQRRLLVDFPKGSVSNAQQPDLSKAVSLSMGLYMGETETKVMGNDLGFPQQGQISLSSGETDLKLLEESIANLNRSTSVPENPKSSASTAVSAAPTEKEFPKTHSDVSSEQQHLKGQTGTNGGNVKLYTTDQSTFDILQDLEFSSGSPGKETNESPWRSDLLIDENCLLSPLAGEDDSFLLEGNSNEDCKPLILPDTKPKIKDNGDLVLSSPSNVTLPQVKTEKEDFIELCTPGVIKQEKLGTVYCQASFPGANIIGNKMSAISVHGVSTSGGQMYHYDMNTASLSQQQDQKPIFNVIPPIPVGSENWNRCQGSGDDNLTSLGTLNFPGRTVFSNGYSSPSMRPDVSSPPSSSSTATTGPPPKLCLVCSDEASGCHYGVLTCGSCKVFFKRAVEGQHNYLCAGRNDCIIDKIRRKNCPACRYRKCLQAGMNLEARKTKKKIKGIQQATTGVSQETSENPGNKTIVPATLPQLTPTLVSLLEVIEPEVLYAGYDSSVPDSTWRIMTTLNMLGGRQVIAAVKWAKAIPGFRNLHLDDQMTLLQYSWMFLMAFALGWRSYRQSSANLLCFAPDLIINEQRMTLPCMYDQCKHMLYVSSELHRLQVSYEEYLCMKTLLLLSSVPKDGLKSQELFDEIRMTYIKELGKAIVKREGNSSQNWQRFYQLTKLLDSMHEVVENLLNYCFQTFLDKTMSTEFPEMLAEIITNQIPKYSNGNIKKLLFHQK
Description: The $EC50$ values were determined graphically.
The HeLa cells were cultured under the same conditions.

Molecule | Luciferase activity % Wild type (wild-type hGR) [%] | EC50 (wild-type hGR) [nM] | transactivation by the I747/T mutant receptor compared with wild-type receptor (hGR(I747/T)) | Luciferase activity % hGR (I747/T) (hGR(I747/T)) [%] | EC50 (hGR(I747/T)) [nM] | % EC50 (hGR(I747/T)) [%] | EC50 [1] [nM] | EC50 [2] [nM] | EC50 [3] [nM] | EC50 [4] [nM] | EC50 [5] [nM]
CC#C[C@]1(O)CC[C@H]2[C@@H]3C=C(C)C4=CC(=O)C=C[C@]4(C)[C@H]3[C@@H](O)C[C@@]21C [RU28362] | 90 | 0.3 | the same transactivation as with the wild-type receptor | 88 | 7 | 23 |  |  |  |  | 
bimedrazol | 100 | 0.1 | a higher activity | 180 | 2 | 20 |  |  |  |  | 
CC1(C)O[C@@H]2C[C@H]3[C@@H]4C[C@H](F)C5=CC(=O)C=C[C@]5(C)[C@@]4(F)[C@@H](O)C[C@]3(C)[C@]2(C(=O)CO)O1 [Fluocinolone, fluocinolone acetonide] | 75 | 0.15 | a higher activity | 100 | 3 | 20 |  |  |  |  | 
TAT promoter (pTAT-tk-Luc), two GREs |  |  |  |  |  |  | 0.4 | 40 |  |  | 
(17M)5 Gal4 response element |  |  |  |  |  |  |  |  | 1.7 | 150 | 
CC1(C)O[C@@H]2C[C@H]3[C@@H]4CCC5=CC(=O)C=C[C@]5(C)[C@@]4(F)[C@@H](O)C[C@]3(C)[C@]2(C(=O)CO)O1 [TA, triamcinolone acetonide] | 98 | 0.5 |  | 102 | 20 |  |  |  |  |  | 
synthetic palindromic GRE (pGRE-tk-Luc) (dsDNA) DNA 1: AGAACACAGTGTTCT DNA 2: AGAACACTGTGTTCT |  |  |  |  |  |  |  |  |  |  | 20
